In series [1] the target is interaction between the E1 and E2 proteins of HPV11/HPV6 (Human papillomavirus 11, UniProt P04014+P04015). The series is described as follows: E1/E2 interaction test (luciferase reporter, mammalian two-hybrid type). It counts as cell-based. The source says:
(§1) In the present invention two types of tests are used to study the biological activity of compounds against papillomavirus. A first test (“E1/E2 interaction test”) evaluates the interaction between the E1 and E2 proteins of HPV (human papillomavirus) in human cells. A second test (“replication test”) measures the replication of viral genomic DNA in human cells.
The test of interaction between E1 and E2 is similar to the tests often called “mammalian two-hybrid” tests. It is based on co-transfection of a reporter vector containing DNA binding sites for the E2 protein of HPV in the promoter controlling expression of the reporter gene, and of expression vectors coding the E1 and E2 proteins of HPV, the E1 protein being fused to the VP16 transactivation domain. […]
Compound (Ia), either in solution or in pharmaceutical compositions (a), (d), (f) and (g), was evaluated for its inhibitory activity on the interaction between the E1 and E2 proteins of HPV11/HPV6 in human cell lines derived from renal epithelial cells or cervical carcinoma cells. Various doses (0.25-40 μM) were incubated in the cell medium for 2 days after transfection, and luciferase activity was measured to determine the IC50 of the compound on the interaction between the E1 and E2 proteins of the HPVs.
On the technique in general: Reporter assays use an easily measured gene product as a stand-in for the process of interest.

Series [2] is described as follows: Solubility of the potassium salt in comparison with the hydrochloride. It counts as physicochemical. The settings on record: potassium salt in comparison with its hydrochloride.
Series [3] concerns E1 and E2 protein-dependent viral replication of HPV11. As to the kind of experiment: Replication test (replicon reporter vector, luciferase). It counts as cell-based. The conditions noted are these: Homo sapiens, read-out: IC50 on E1 and E2 protein-dependent viral replication of HPV11 in cells.
Description: as §1
The test of replication of viral genomic DNA is based on the co-transfection of a reporter vector containing an HPV origin of replication (ori) and expression vectors coding the E1 and E2 proteins of HPV. It makes it possible to follow the set of biological functions of E1 and E2 required for replication of the genome of the HPVs. […]
Compound (Ia), either in solution or in pharmaceutical compositions (a), (d), (f) and (g), was also evaluated for its inhibitory activity on the E1- and E2-dependent viral replication of HPV11/HPV6 in human cell lines derived from renal epithelial cells or cervical carcinoma cells. Various doses (0.25-40 μM) were incubated in the cell medium for 2 to 6 days after transfection, and luciferase activity was measured using a luminometer to determine the IC50 of the compound on the replication of the genome of the HPVs.
On the technique in general: In antiviral work, replicon cells carry a viral genome segment that copies itself.

Series [4] in a line: Percutaneous absorption in vitro on human skin mounted on a Franz cell. It counts as in vitro ADME. The settings on record: 8 hours of diffusion. As for the experimental part:
The percutaneous absorption of compound (Ia) from pharmaceutical composition (g) was studied after the application of a dose of 10 mg/cm^2 on human skin mounted on a Franz cell. This study was carried out by comparing percutaneous absorption on healthy skin and on delaminated skin, as a model of the weak keratinization of the anogenital region.
After 8 or 24 hours of exposure to pharmaceutical composition (g), the quantity of compound (Ia) present in each skin layer (stratum corneum, epidermis, dermis) and that having crossed the skin (receiving fluid) is quantified by HPLC.
The stratum corneum of the non-delaminated skin samples is removed from the epidermis by peeling with adhesive. The latter is applied to the skin surface under constant and controlled pressure.

This note sets out measurements from patent US9670159B2, “Pharmaceutical composition of a papillomavirus inhibitor” (AVIRAGEN THERAPEUTICS, INC., priority 2012, dated 2017).

The structures appear in SMILES notation.

Sequence of interaction between the E1 and E2 proteins of HPV11/HPV6 (P04014 whole entry): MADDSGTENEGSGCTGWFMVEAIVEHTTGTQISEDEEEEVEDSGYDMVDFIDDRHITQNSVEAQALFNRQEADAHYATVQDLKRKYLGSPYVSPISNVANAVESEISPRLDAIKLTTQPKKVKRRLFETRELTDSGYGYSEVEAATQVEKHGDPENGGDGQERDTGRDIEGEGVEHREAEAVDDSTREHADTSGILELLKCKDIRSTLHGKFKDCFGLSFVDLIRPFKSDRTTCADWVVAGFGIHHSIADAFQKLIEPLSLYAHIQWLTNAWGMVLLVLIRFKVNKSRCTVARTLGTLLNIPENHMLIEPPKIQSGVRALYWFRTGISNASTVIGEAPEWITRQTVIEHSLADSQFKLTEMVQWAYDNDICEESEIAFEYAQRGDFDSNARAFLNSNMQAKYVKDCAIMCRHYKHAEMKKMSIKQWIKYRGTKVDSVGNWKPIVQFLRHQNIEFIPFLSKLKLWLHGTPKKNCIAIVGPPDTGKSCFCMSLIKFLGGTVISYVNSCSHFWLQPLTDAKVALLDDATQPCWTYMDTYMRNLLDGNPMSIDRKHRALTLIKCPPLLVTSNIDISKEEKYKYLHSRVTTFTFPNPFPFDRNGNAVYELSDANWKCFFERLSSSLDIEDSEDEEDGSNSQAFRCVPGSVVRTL
Sequence of interaction between the E1 and E2 proteins of HPV11/HPV6 (P04015 whole entry): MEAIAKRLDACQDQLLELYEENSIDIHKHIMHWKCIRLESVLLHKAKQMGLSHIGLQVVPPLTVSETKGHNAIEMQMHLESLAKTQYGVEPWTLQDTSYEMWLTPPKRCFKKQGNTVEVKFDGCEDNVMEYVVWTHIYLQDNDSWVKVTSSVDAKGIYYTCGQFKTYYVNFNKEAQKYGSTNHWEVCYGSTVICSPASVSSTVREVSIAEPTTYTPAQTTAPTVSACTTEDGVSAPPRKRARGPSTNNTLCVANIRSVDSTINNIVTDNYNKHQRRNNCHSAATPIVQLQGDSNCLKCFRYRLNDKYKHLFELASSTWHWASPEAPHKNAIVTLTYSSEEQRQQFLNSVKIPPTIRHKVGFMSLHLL

What is called IC50 is the midpoint of a concentration-inhibition curve. Take `COc1cc(CC(=O)NN(c2ccc(Cc3ccccc3)cc2)c2c(C)cccc2N2CCCCC2)c(Br)cc1C(=O)O` [Compound (Ia), 4-[N′-(4-benzyl-phenyl)-N′-(2-methyl-6-piperidin-1-yl-phenyl)-hydrazinocarbonylmethyl]-5-bromo-2-methoxy-benzoic acid]: the IC50 in series [1] and in series [3] was about 1000 nM throughout. Besides, the solubility result in series [2] is given as “increases the solubility”. Moreover, the “local concentration in the skin relative to the IC50 measured in cellulo” value in series [4] (delaminated skin) is on record as 1000 times; in series [4] (healthy skin), 100 times.
